Experimental data taken from patent US11083729B2, “Methods of treating cancer with small molecule NF-κB inhibitors” (ImmuneTarget, Inc., priority 2017, dated 2021).

Experiments:
[1] = test system: PLC/PRF/5; assay: CellTiter-Glo IG50, Example 9 HCC panel, PLC/PRF/5; format: cell-based; conditions: Homo sapiens, PLC/PRF/5, 72 hours
Experimental: (§1) The cells were harvested during the logarithmic growth period and counted. Cell concentrations were adjusted to the appropriate number in appropriate medium and 90 μl cell suspensions were added to 96-well plates. When cells were added, the plates were shaken gently to distribute the cells evenly. Cells were incubated at 37° C. and 5% CO2.
(§2) 3× serial dilutions of test compound stock solutions with respective solvents were prepared. The stock solutions were diluted with culture medium to generate 10× working solutions of the test compounds. 10 μl of the 10× test compound solutions were added to each well in triplicate for each concentration. Plates were incubated for 72 hours in a humidified incubator at 37° C. and 5% CO2.
(§3) CellTiter-Glo (CTG) solution was thawed and equilibrated to room temperature. 50 μl of CTG were added to each well and the contents were mixed for 2 minutes on a plate shaker. Cells were incubated for 10 minutes before luminescence signal was recorded using Envision.
(§4) Cell viability was plotted with GraphPad Prism version 5 and the IG50 was calculated for each cell line. The graphical curves were fitted using a nonlinear regression model with a sigmoidal dose response. IG50 is the concentration of test drug where 100×T/C=50 (the optical density of the test well after a 3-day period of exposure to test drug is T; the control optical density is C).
(§5) The cells were cultured in an atmosphere of 37° C., 5% CO2 and 95% humidity. All culture media and FBS were purchased from GIBCO, Hyclone or Sigma, USA. The media used for cell culture is described in the table below.
(§6) Following the cell culture protocol and data analysis methods described in Example 8, the following IG50 results (in μM) were observed: […]

[2] = test system: JHH5; assay: CellTiter-Glo IG50, Example 9 HCC panel, JHH5; format: cell-based; conditions: JHH5, 72 hours
Experimental: as §1, §2, §3, §4, §5, §6

[3] = test system: HepG2; assay: CellTiter-Glo IG50, Example 9 HCC panel, HepG2; format: cell-based; conditions: Homo sapiens, HepG2, 72 hours
Experimental: as §1, §2, §3, §4, §5, §6

[4] = test system: HUH7; assay: CellTiter-Glo IG50, Example 9 HCC panel, HUH7; format: cell-based; conditions: Homo sapiens, Huh-7, HUH7, 72 hours
Experimental: as §1, §2, §3, §4, §5, §6

[5] = test system: SNU878; assay: CellTiter-Glo IG50, Example 9 HCC panel, SNU878; format: cell-based; conditions: SNU878, 72 hours
Experimental: as §1, §2, §3, §4, §5, §6

[6] = test system: Hep3B; assay: CellTiter-Glo IG50, Example 9 HCC panel, Hep3B; format: cell-based; conditions: Homo sapiens, 72 hours
Experimental: as §1, §2, §3, §4, §5, §6

[7] = test system: PBMC; assay: CellTiter-Glo IG50, Example 9 HCC panel, PBMC; format: cell-based; conditions: 72 hours
Experimental: as §1, §2, §3, §4, §5, §6

[8] = test system: T47D; assay: CellTiter-Glo IG50, Example 8, T47D; format: cell-based; conditions: Homo sapiens, 72 hours
Experimental: (§7) Various pancreatic, liver, colon, breast, and stomach cancer cell lines were exposed to the NF-κB inhibitors of the present invention, including, for example, IT-839, IT-843, IT-848, and IT-878, and assessed for IG50 in the CellTiter Glo 2.0 assay.
as §5, §1, §2, §3, §4

[9] = test system: Hep3B; assay: CellTiter-Glo IG50, Example 8, Hep3B; format: cell-based; conditions: Homo sapiens, 72 hours
Experimental: as §7, §5, §1, §2, §3, §4

[10] = test system: HT-29; assay: CellTiter-Glo IG50, Example 8, HT-29; format: cell-based; conditions: Homo sapiens, HT-29, 72 hours
Experimental: as §7, §5, §1, §2, §3, §4

[11] = test system: LoVo; assay: CellTiter-Glo IG50, Example 8, LoVo; format: cell-based; conditions: Homo sapiens, 72 hours
Experimental: as §7, §5, §1, §2, §3, §4

[12] = test system: MCF-7; assay: CellTiter-Glo IG50, Example 8, MCF-7; format: cell-based; conditions: Homo sapiens, MCF7, MCF-7, 72 hours
Experimental: as §7, §5, §1, §2, §3, §4

[13] = test system: MDA-MB-231; assay: CellTiter-Glo IG50, Example 8, MDA-MB-231; format: cell-based; conditions: Homo sapiens, MDA-MB-231, 72 hours
Experimental: as §7, §5, §1, §2, §3, §4

[14] = test system: PLC/PRF/5; assay: CellTiter-Glo IG50, Example 8, PLC/PRF/5; format: cell-based; conditions: Homo sapiens, PLC/PRF/5, 72 hours
Experimental: as §7, §5, §1, §2, §3, §4

[15] = test system: MKN45; assay: CellTiter-Glo IG50, Example 8, MKN45; format: cell-based; conditions: Homo sapiens, MKN-45, MKN45, 72 hours
Experimental: as §7, §5, §1, §2, §3, §4

[16] = test system: KATO III; assay: CellTiter-Glo IG50, Example 8, KATO III; format: cell-based; conditions: Homo sapiens, 72 hours
Experimental: as §7, §5, §1, §2, §3, §4

[17] = test system: HepG2; assay: CellTiter-Glo IG50, Example 8, HepG2; format: cell-based; conditions: Homo sapiens, HepG2, 72 hours
Experimental: as §7, §5, §1, §2, §3, §4

[18] = test system: AGS; assay: CellTiter-Glo IG50, Example 8, AGS; format: cell-based; conditions: Homo sapiens, 72 hours
Experimental: as §7, §5, §1, §2, §3, §4

[19] = test system: PANC-1; assay: CellTiter-Glo IG50, Example 8, PANC-1; format: cell-based; conditions: Homo sapiens, PANC-1, 72 hours
Experimental: as §7, §5, §1, §2, §3, §4

[20] = test system: MIAPACA-2; assay: CellTiter-Glo IG50, Example 8, MIAPACA-2; format: cell-based; conditions: Homo sapiens, MIA PaCa-2, MIAPACA-2, 72 hours
Experimental: as §7, §5, §1, §2, §3, §4

[21] = test system: Capan-1; assay: CellTiter-Glo IG50, Example 8, Capan-1; format: cell-based; conditions: Homo sapiens, Capan-1, 72 hours
Experimental: as §7, §5, §1, §2, §3, §4

[22] = test system: HCT116; assay: CellTiter-Glo IG50, Example 8, HCT116; format: cell-based; conditions: Homo sapiens, HCT-116, HCT116, 72 hours
Experimental: as §7, §5, §1, §2, §3, §4

[23] = biological target: T1, c-Rel protein (Homo sapiens, UniProt Q04864); assay: Electrophoretic Mobility Shift Assay (EMSA), c-Rel binding to CD28RE oligonucleotide; conditions: 10 nM c-Rel protein
T1 sequence (Q04864 1-619): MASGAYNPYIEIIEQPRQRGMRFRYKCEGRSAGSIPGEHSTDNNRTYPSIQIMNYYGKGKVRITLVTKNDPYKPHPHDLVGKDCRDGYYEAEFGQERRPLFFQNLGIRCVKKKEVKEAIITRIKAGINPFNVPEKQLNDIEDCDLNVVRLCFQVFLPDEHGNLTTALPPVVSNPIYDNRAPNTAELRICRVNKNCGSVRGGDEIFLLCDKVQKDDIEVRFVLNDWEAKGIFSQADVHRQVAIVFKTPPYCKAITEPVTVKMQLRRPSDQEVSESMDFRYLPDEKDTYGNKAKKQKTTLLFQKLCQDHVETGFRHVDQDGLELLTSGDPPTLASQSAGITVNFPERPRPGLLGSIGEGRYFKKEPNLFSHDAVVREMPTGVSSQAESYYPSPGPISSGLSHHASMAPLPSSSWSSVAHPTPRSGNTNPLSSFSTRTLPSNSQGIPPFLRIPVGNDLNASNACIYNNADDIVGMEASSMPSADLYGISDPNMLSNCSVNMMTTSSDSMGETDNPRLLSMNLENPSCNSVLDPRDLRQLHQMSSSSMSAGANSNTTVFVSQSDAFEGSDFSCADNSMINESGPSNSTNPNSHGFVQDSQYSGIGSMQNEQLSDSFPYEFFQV
Experimental: DNA binding reaction (20 μL) was carried out in 1×DNA Binding Buffer (10 mM Tris, 40 mM NaCl, 1 mM EDTA, 4% glycerol) with 10 nM c-Rel protein and 0.5 ng phosphor-labeled CD28RE oligonucleotide for 10 minutes at room temperature in 96-well plates. Test compounds, in serial dilutions, were added into each well, and further incubated for 15 minutes before loading onto native 5% polyacrylamide gel. Electrophoresis proceeded for 2.5 hours at 160V. Radioactive signals were quantified using Phospho-Imager. IC50 of compounds of example 1 to 75 were determined by quantifying the intensity of Rel/NF-κB inhibition in EMSA using phospho-imager. An example of EMSA data of the present invention is shown for compound 6 in FIG. 2.

CCCCCCOc1cc2oc3nc(=O)[nH]c(=O)c-3cc2cc1F [IT-835]
IC50 [1]: > 16 µM | IC50 [2]: > 16 µM | IC50 [3]: > 16 µM | IC50 [4]: 5.4 µM | IC50 [5]: > 16 µM | IC50 [6]: 3.26 µM | IC50 [7]: 0.985 µM

CCCCCCCOc1ccc2cc3c(=O)[nH]c(=O)nc-3oc2c1Cl [IT-846]
IC50 [1]: 8.51 µM | IC50 [2]: > 16 µM | IC50 [3]: 4.27 µM | IC50 [4]: 3.39 µM | IC50 [5]: > 16 µM | IC50 [6]: 2.34 µM | IC50 [7]: 0.456 µM

O=C(O)CCCCCOc1ccc2cc3c(=O)[nH]c(=O)nc-3oc2c1Cl [IT-855]
IC50 [1]: > 16 µM | IC50 [2]: 8.15 µM | IC50 [3]: > 16 µM | IC50 [4]: > 16 µM | IC50 [5]: 9.15 µM | IC50 [6]: > 16 µM | IC50 [7]: > 16 µM

COCCCCOc1ccc2cc3c(=O)[nH]c(=O)nc-3oc2c1Cl [IT-878]
IC50 [8]: > 16 µM | IC50 [9]: 3.45 µM | IC50 [10]: > 16 µM | IC50 [11]: > 16 µM | IC50 [12]: > 16 µM | IC50 [13]: > 16 µM | IC50 [14]: > 16 µM | IC50 [15]: > 16 µM | IC50 [16]: > 16 µM | IC50 [17]: > 16 µM | IC50 [18]: > 16 µM | IC50 [19]: > 16 µM | IC50 [20]: 17.8 µM | IC50 [21]: > 16 µM | IC50 [22]: > 16 µM

COCCOCCOc1ccc2cc3c(=O)[nH]c(=O)nc-3oc2c1Cl [IT-876]
IC50 [1]: > 16 µM | IC50 [2]: 8.5 µM | IC50 [3]: 4.9 µM | IC50 [4]: 17.7 µM | IC50 [5]: > 16 µM | IC50 [6]: > 16 µM | IC50 [7]: 8.67 µM

Nc1ccn([C@@H]2O[C@H](CO)[C@@H](O)C2(F)F)c(=O)n1 [Gemcitabine, gemcitabine, reference compound]
IC50 [8]: > 16 µM | IC50 [12]: > 16 µM | IC50 [13]: > 16 µM | IC50 [19]: > 16 µM | IC50 [20]: 0.012 µM | IC50 [21]: 0.051 µM

CCOc1cc2oc3nc(=O)[nH]c(=O)c-3cc2cc1F [compound 28, 8-ethoxy-7-fluoro-2H-chromeno[2,3-d]pyrimidine-2,4(3H)-dione]
IC50 [23]: < 0.5 µM

O=c1[nH]cc(F)c(=O)[nH]1 [5-FU, 5-fluorouracil, reference compound]
IC50 [10]: 15.9 µM | IC50 [11]: 27 µM | IC50 [15]: 4.72 µM | IC50 [16]: > 64 µM | IC50 [18]: 31.9 µM | IC50 [22]: 5.2 µM

CCCCOc1ccc2cc3c(=O)[nH]c(=O)nc-3oc2c1F [compound 45]
IC50 [23]: < 0.5 µM

COCCCCOc1cc2oc3nc(=O)[nH]c(=O)c-3cc2cc1Cl [compound 69]
IC50 [23]: < 1 µM

CCCCOc1cc2oc3nc(=O)[nH]c(=O)c-3cc2cc1F [compound 29]
IC50 [23]: < 0.5 µM

COCCOCCCOc1ccc2cc3c(=O)[nH]c(=O)nc-3oc2c1F [compound 73]
IC50 [23]: < 1 µM

Cc1ccc2cc3c(=O)[nH]c(=S)nc-3oc2c1 [compound 17, 8-methyl-2-thioxo-2H-chromeno[2,3-d]pyrimidin-4(3H)-one]
IC50 [23]: < 0.5 µM

COc1ccc2oc3nc(=O)[nH]c(=O)c-3cc2c1 [compound 10, 7-methoxy-2H-chromeno[2,3-d]pyrimidine-2,4(3H)-dione]
IC50 [23]: < 1 µM
